Measurements taken from article PMC11790914, “Chemogenomics for steroid hormone receptors (NR3)” (Communications Chemistry, 2025).
Values joined by “and” are separate entries in the source; they are usually repeats but may differ in a detail not shown here. Equal values may be shown once.

What was measured:
HEK293T cells [1] = experiment: Cytotoxicity: necrosis induction (red fluorescent dye for permeable plasma membranes); format: cell-based; conditions: 24 h, necrotic cell count normalized to 0.1% DMSO, single replicates;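 also: compounds applied in DMEM high glucose with 0.1% FCS and 0.1% DMSO, necrotic HEK293T cells counted by red staining of cells whose plasma membranes had become permeable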
ABL1 = molecular target: T1, ABL1 (Homo sapiens, UniProt P00519); experiment: Liability panel screening by DSF: ABL1; format: binding; conditions: DSF, 20 µM, n=2; read-out: Mean ΔTM ABL1
T1 construct: made in house
Method: (§1) Reference ligands are listed in the methods section.
(§2) In-house produced recombinantly expressed proteins[62] of the liability panel targets were diluted in a buffer containing 10 mM HEPES (pH 7.5) and 500 mM NaCl to a concentration of 2 µM. SYPRO Orange (Invitrogen, Carlsbad, California, USA; #S6650) as a fluorescence probe was added at a 1:1000 dilution to the proteins. […] Temperature-dependent unfolding profiles were measured on a QuantStudio™ 5 real-time PCR machine (Thermo Fisher Scientific, Waltham, Massachusetts, USA; #A28140). […] The temperature was increased 3 °C per minute to a maximum temperature of 85 °C. Experiments were run as technical duplicates. […] Data were analyzed with the internal Thermal Shift Software (version 1.4, Thermo Fisher Scientific) using the Boltzmann equitation to determine the inflection point of the transition curve. Differences in melting temperature are given as ∆Tm in K. […]
(§3) scanning fluorimetry (DSF).
(§4) a concentration of 20 µM.

AURKA = molecular target: T2, AURKA (Homo sapiens, UniProt O14965); experiment: Liability panel screening by DSF: AURKA; format: binding; conditions: DSF, 20 µM, n=2; read-out: Mean ΔTM AURKA
T2 construct: made in house
T2 sequence (O14965 1-403): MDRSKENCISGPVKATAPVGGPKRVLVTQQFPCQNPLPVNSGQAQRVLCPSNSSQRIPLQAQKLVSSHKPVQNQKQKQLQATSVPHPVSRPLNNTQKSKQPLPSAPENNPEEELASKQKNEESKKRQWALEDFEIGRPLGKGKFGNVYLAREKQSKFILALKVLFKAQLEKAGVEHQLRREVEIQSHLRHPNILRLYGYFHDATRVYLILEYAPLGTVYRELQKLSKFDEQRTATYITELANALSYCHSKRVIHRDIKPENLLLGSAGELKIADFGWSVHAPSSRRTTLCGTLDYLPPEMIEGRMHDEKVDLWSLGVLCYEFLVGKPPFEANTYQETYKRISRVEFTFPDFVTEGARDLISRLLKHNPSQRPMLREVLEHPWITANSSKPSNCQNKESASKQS
Method: as §1, §2, §3, §4

CDK2 = molecular target: T3, CDK2 (Homo sapiens, UniProt P24941); experiment: Liability panel screening by DSF: CDK2; format: binding; conditions: DSF, 20 µM, n=2; read-out: Mean ΔTM CDK2
T3 construct: made in house
Method: as §1, §2, §3, §4

FGFR3 = molecular target: T4, FGFR3 (Homo sapiens, UniProt P22607); experiment: Liability panel screening by DSF: FGFR3; format: binding; conditions: DSF, 20 µM, n=2; read-out: Mean ΔTM FGFR3
T4 construct: made in house
Method: as §1, §2, §3, §4

GSK3B = molecular target: T5, GSK3B (Homo sapiens, UniProt P49841); experiment: Liability panel screening by DSF: GSK3B; format: binding; conditions: DSF, 20 µM, n=2; read-out: Mean ΔTM GSK3B
T5 construct: made in house

BRD4 = molecular target: T6, BRD4 (Homo sapiens, UniProt O60885); experiment: Liability panel screening by DSF: BRD4; format: binding; conditions: DSF, 20 µM, n=2; read-out: Mean ΔTM BRD4
T6 construct: This panel comprised ten highly ligandable kinases and bromodomains; made in house
Method: as §1, §2, §3, §4

BRPF1 = molecular target: T7, BRPF1 (Homo sapiens, UniProt P55201); experiment: Liability panel screening by DSF: BRPF1; format: binding; conditions: DSF, 20 µM, n=2; read-out: Mean ΔTM BRPF1
T7 construct: This panel comprised ten highly ligandable kinases and bromodomains; made in house
T7 sequence (P55201 628-732 limits assumed): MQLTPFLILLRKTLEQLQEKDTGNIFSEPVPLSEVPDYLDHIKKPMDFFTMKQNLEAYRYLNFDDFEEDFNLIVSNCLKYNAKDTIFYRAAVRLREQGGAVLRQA
Method: as §1, §2, §3, §4

CSNK1D = molecular target: T8, CSNK1D (Homo sapiens, UniProt P48730); experiment: Liability panel screening by DSF: CSNK1D; format: binding; conditions: DSF, 20 µM, n=2; read-out: Mean ΔTM CSNK1D
T8 construct: made in house
Method: as §1, §2, §3, §4

MAPK1 = molecular target: T9, MAPK1 (Homo sapiens, UniProt P28482); experiment: Liability panel screening by DSF: MAPK1; format: binding; conditions: DSF, 20 µM, n=2; read-out: Mean ΔTM MAPK1
T9 construct: made in house
Method: as §1, §2, §3, §4

TRIM24 = molecular target: T10, TRIM24 (Homo sapiens, UniProt O15164); experiment: Liability panel screening by DSF: TRIM24; format: binding; conditions: DSF, 20 µM, n=2; read-out: Mean ΔTM TRIM24
T10 construct: This panel comprised ten highly ligandable kinases and bromodomains; made in house
T10 sequence (O15164 899-1004 limits assumed): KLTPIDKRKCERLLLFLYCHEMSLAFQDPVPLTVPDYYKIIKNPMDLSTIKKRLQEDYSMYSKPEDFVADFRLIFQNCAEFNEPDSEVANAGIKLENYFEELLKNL
Method: as §1, §2, §3, §4

[2] = tested on: NF-κB activity in HEK293 NF-κB reporter cells; experiment: NF-kB activity assay (GFP reporter, ionomycin/PMA); format: cell-based; conditions: for Mean NFκB response: n=3
Method: Fig. 6 Application of the NR3 CG set.
After 24 h, cells were incubated with the test compounds solubilized with 0.1% DMSO in the same medium without puromycin. After 4 h incubation, ionomycin (100 ng/mL) and phorbol-12-myristat-13-acetate (PMA, 10 ng/mL) was added, and the cells were imaged for confluence and GFP expression every 90 min. over 24 h using a Tecan SPARK Cyto (Tecan). The number of GFP expressing cells was normalized to confluence in each sample. Each sample was repeated in three biologically independent experiments.

[3] = tested on: ATF6 activity in Hela ATF6 reporter cells; experiment: Endoplasmic reticulum stress assay (ATF6 Renilla luciferase reporter, tunicamycin); format: cell-based; conditions: for ATF6 activity (tunicamycin-induced endoplasmic reticulum stress): Hela ATF6 reporter cells, tunicamycin 100 ng/mL, 18 h, compounds at recommended concentrations, n = 5
Method: After 24 h, cells were incubated with the test compounds solubilized with 0.1% DMSO in the same medium without puromycin. After 4 h incubation, tunicamycin (100 ng/mL) was added. After another 18 h incubation, cells were assayed for renilla luminescence using DualGlo reagent (Promega) on a Tecan SPARK Cyto (Tecan). Test samples were normalized to the 0.1% DMSO control. Each sample was repeated in five biologically independent experiments.

HEK293T cells [4] = experiment: Cytotoxicity: metabolic activity (WST-8 / CCK-8 assay); conditions: HEK293T, 24 h, WST-8, normalized to 0.1% DMSO, single replicates
HEK293T cells [5] = experiment: Cytotoxicity: growth-rate (change in confluence over 24 h); conditions: normalized to 0.1% DMSO control, single replicates (n=1...)
HEK293T cells [6] = experiment: Cytotoxicity: apoptosis induction (caspase-3/7 DEVD fluorogenic DNA dye); conditions: HEK293T, 24 h, apoptotic cell count normalized to 0.1% DMSO, single replicates
Method: Cells were incubated with the test compounds at the indicated concentrations solubilized with 0.1% DMSO for 24 h. Growth-rate was determined based on the change in confluence over 24 h normalized to the change in confluence of cells treated with the 0.1% DMSO control (n = 10). Metabolic activity was determined with a water-soluble tetrazolium-8 (WST-8) assay (n = 8) after 24 h treatment. Apoptotic cells were detected with a fluorogenic DNA dye coupled to the caspase-3/7 recognition sequence (DEVD) after 24 h treatment and the apoptotic cell count was normalized to 0.1% DMSO treated cells (n = 6).
HEK293T cells (German Collection of Microorganisms and Cell Culture GmbH, DSMZ; #ACC305) were cultured in DMEM high glucose, supplemented with 10% fetal calf serum (FCS), sodium pyruvate (1 mM), penicillin (100 µ/mL) and streptomycin (100 µg/mL) at 37 °C and 5% (v/v) CO2, and seeded in pre-coated (10 µg/mL collagen G solution (Merck KgaA; #L7213) for 30 min at 37 °C) 96-well plates (2 × 10^5 cells per well). After 24 h, the cells were treated with the respective NR3 CG compound candidate at the recommended concentration, bexarotene (100 µM) or doxorubicin (30 µM) as positive controls in DMEM high glucose supplemented with 0.1% FCS, penicillin (100 µ/mL), streptomycin (100 µg/mL) and 0.1% DMSO, or 0.1% DMSO alone as an untreated control. Each sample was prepared in at least four biologically independent replicates. […] Thereafter, the medium was aspirated and the cells were incubated for 3 h with 90 µL DMEM high glucose supplemented with 0.2% FCS, penicillin (100 µ/mL) and streptomycin (100 µg/mL) and additionally containing 10 µL Cell Counting Kit 8 solution (CCK-8; MedChemExpress, Monmouth Junction, New York, USA; #HY-K0301), and absorbance was measured at 1 h, 2 h and 3 h of incubation at 450 nm on a Tecan Spark Cyto to assess metabolic activity of the cells. Before drug administration, after the first medium exchange, 24 h after drug administration, and after fluorescence imaging cell confluence was assessed using the Tecan Spark Cyto, to account for changes in cell confluence due to drug administration and cell handling. Compound effects on cell confluence, apoptosis, metabolic activity and necrosis were normalized to the vehicle control of each biological replicate individually.

T9 sequence (P28482 whole entry, species assumed): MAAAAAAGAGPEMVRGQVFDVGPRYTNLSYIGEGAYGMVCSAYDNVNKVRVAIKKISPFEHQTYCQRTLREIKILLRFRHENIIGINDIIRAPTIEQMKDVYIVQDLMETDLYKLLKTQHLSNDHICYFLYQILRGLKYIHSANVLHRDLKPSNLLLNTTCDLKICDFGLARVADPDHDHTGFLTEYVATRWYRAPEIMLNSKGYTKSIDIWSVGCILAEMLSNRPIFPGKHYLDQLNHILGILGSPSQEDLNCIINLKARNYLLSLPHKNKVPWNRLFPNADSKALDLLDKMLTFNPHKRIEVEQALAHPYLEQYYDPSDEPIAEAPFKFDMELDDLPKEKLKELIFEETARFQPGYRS
T1 sequence (P00519 whole entry, species assumed): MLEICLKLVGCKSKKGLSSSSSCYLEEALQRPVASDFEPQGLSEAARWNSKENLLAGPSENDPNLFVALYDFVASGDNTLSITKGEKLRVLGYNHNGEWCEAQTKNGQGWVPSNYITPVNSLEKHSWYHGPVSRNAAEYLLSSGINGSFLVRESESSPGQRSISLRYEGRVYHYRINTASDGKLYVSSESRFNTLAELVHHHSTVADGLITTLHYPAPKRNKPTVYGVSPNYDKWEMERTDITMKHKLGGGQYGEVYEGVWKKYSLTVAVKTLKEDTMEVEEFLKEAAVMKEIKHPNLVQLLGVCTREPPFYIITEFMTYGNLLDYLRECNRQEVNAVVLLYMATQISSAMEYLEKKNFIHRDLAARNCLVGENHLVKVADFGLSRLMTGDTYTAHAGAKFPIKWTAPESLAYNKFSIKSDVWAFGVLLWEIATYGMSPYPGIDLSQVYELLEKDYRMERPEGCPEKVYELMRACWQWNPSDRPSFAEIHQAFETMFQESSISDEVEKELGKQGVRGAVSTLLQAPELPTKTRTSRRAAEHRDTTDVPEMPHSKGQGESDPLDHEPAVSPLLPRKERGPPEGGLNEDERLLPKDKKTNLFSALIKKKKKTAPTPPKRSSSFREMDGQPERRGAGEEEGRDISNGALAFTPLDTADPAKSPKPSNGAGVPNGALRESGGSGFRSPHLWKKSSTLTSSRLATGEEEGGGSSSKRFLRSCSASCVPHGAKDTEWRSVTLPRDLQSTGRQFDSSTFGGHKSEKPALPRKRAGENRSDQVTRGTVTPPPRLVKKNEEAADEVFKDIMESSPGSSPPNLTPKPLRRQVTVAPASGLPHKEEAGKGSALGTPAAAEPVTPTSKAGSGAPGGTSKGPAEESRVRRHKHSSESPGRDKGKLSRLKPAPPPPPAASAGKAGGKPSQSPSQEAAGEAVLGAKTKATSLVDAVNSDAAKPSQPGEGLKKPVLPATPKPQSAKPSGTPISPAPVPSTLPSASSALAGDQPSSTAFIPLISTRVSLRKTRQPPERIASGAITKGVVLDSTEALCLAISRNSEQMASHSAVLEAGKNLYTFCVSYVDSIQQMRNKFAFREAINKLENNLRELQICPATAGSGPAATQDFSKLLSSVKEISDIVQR
T5 sequence (P49841 whole entry, species assumed): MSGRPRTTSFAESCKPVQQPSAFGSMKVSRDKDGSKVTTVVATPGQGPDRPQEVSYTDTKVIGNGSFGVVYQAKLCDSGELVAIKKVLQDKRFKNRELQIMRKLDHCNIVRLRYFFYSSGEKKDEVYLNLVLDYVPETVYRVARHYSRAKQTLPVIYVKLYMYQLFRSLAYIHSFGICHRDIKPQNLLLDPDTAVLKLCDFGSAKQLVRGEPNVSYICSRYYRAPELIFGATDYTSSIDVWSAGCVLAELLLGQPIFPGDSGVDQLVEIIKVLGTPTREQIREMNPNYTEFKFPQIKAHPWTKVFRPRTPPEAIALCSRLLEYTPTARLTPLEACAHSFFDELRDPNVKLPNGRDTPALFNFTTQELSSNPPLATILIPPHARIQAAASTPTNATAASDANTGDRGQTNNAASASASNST
T4 sequence (P22607 23-806, species assumed): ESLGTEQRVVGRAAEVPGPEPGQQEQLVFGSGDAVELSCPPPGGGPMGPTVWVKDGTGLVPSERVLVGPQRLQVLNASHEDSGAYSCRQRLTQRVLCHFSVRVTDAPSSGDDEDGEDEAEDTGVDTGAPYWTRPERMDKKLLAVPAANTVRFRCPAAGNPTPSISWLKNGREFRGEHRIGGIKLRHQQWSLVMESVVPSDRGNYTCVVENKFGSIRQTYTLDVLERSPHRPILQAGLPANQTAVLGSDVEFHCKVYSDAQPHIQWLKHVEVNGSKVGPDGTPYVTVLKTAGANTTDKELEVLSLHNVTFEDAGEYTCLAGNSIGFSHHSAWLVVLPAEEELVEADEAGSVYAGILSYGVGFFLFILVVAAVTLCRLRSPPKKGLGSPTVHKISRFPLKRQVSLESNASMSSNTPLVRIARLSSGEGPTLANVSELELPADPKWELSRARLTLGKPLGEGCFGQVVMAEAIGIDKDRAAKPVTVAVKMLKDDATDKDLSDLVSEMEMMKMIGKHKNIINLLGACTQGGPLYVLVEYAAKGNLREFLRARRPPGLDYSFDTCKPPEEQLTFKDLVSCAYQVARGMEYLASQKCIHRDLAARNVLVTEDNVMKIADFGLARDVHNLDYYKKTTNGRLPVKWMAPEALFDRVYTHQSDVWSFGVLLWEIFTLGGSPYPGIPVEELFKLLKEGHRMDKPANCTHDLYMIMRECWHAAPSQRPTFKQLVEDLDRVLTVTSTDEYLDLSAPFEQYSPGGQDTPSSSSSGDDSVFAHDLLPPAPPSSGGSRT
T8 sequence (P48730 whole entry, species assumed): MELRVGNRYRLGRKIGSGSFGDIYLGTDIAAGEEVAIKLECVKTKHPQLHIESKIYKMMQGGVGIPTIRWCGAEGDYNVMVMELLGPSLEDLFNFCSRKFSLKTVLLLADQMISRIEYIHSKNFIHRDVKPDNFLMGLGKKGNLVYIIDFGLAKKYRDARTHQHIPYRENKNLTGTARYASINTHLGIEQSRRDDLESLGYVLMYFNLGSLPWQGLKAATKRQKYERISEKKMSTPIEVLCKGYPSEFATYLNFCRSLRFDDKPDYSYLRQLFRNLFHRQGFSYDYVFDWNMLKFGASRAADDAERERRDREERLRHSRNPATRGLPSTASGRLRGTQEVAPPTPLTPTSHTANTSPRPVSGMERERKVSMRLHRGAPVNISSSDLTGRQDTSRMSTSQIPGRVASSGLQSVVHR

SMILES: N#CC(Cc1ccc(O)cc1)c1ccc(O)cc1 (stereo not shown) [Diarylpropionitrile]
- Necrosis induction [NI] (HEK293T cells [1]; 1 µM): 1.10 and 0.85 and 0.90 and 1.44
- ΔTm at 20 µM (ABL1): 0.17 °C
- ΔTm at 20 µM (AURKA): 0.16 °C
- ΔTm at 20 µM (CDK2): 0.74 °C
- ΔTm at 20 µM (FGFR3): 0.51 °C
- ΔTm at 20 µM (GSK3B): 0.0529 °C
- ΔTm at 20 µM (BRD4): 0.26 °C
- ΔTm at 20 µM (BRPF1): -1.46 °C
- ΔTm at 20 µM (CSNK1D): 0.0747 °C
- ΔTm at 20 µM (MAPK1): 0.0328 °C
- ΔTm at 20 µM (TRIM24): 0.03 °C
- Mean NFκB response ([2]; 1 µM, 1,5 h): 3165.75 GFP+-cells/confluence ∙ 1000
- Mean NFκB response ([2]; 1 µM, 4,5 h): 4108.72 GFP+-cells/confluence ∙ 1000
- Mean NFκB response ([2]; 1 µM, 7,5 h): 9286.59 GFP+-cells/confluence ∙ 1000
- Mean NFκB response ([2]; 1 µM, 10,5 h): 18231.50 GFP+-cells/confluence ∙ 1000
- Mean NFκB response ([2]; 1 µM, 13,5 h): 25916.56 GFP+-cells/confluence ∙ 1000
- Mean NFκB response ([2]; 1 µM, 16,6 h): 31500.03 GFP+-cells/confluence ∙ 1000
- Mean NFκB response ([2]; 1 µM, 19,5 h): 35046.16 GFP+-cells/confluence ∙ 1000
- Mean NFκB response ([2]; 1 µM, 22,5 h): 38151.13 GFP+-cells/confluence ∙ 1000
- Mean NFκB response ([2]; 1 µM, 3 h): 3363.39 GFP+-cells/confluence ∙ 1000
- Mean NFκB response ([2]; 1 µM, 6 h): 5664.74 GFP+-cells/confluence ∙ 1000
- Mean NFκB response ([2]; 1 µM, 9 h): 14005.24 GFP+-cells/confluence ∙ 1000
- Mean NFκB response ([2]; 1 µM, 12 h): 22519.63 GFP+-cells/confluence ∙ 1000
- Mean NFκB response ([2]; 1 µM, 15 h): 29221.60 GFP+-cells/confluence ∙ 1000
- Mean NFκB response ([2]; 1 µM, 18 h): 33392.36 GFP+-cells/confluence ∙ 1000
- Mean NFκB response ([2]; 1 µM, 21 h): 36386.11 GFP+-cells/confluence ∙ 1000
- Mean NFκB response ([2]; 1 µM, 24 h): 39415.66 GFP+-cells/confluence ∙ 1000
- NF-κB activity (inflammatory response to ionomycin/PMA) ([2]; HEK293 NF-κB reporter cells, compounds at recommended concentrations, imaged over 24 h, n = 3): no impact on NF-κB activity
- ATF6 activity (tunicamycin-induced endoplasmic reticulum stress) [3]: failed to reduce ATF6 activity
- Metabolic activity [MA] (HEK293T cells [4]; 1 µM): 1.05 and 0.99 and 0.90 and 1.01 and 1.03 and 0.93 and 1.00 and 1.10
- Growth rate [GR] (HEK293T cells [5]; 1 µM): 0.79 (2×) and 0.00 (2×) and 0.84 and 1.00 and 0.91 and 0.88 and 1.61 and 5.04
- Apoptosis induction [AI] (HEK293T cells [6]; 1 µM): 0.70 and 1.46 and 0.65 and 1.11 and 1.49 and 0.58

SMILES: CN(C)CCOc1ccc(/C(=C(/CCCO)c2ccccc2)c2ccc(O)cc2)cc1 [GSK5182]
- Necrosis induction [NI] (HEK293T cells [1]; 10 µM): 0.56 and 0.11 and 0.30 and 0.25
- ΔTm at 20 µM (ABL1): 0.43 °C
- ΔTm at 20 µM (AURKA): -0.17 °C
- ΔTm at 20 µM (CDK2): 0.68 °C
- ΔTm at 20 µM (FGFR3): 0.62 °C
- ΔTm at 20 µM (GSK3B): -1.96 °C
- ΔTm at 20 µM (BRD4): -2.92 °C
- ΔTm at 20 µM (BRPF1): -1.74 °C
- ΔTm at 20 µM (CSNK1D): -0.68 °C
- ΔTm at 20 µM (MAPK1): 0.14 °C
- ΔTm at 20 µM (TRIM24): -0.25 °C
- Mean NFκB response ([2]; 10 µM, 1,5 h): 4124.00 GFP+-cells/confluence ∙ 1000
- Mean NFκB response ([2]; 10 µM, 4,5 h): 4518.85 GFP+-cells/confluence ∙ 1000
- Mean NFκB response ([2]; 10 µM, 7,5 h): 8291.63 GFP+-cells/confluence ∙ 1000
- Mean NFκB response ([2]; 10 µM, 10,5 h): 18033.90 GFP+-cells/confluence ∙ 1000
- Mean NFκB response ([2]; 10 µM, 13,5 h): 26386.99 GFP+-cells/confluence ∙ 1000
- Mean NFκB response ([2]; 10 µM, 16,6 h): 32458.21 GFP+-cells/confluence ∙ 1000
- Mean NFκB response ([2]; 10 µM, 19,5 h): 36483.54 GFP+-cells/confluence ∙ 1000
- Mean NFκB response ([2]; 10 µM, 22,5 h): 40081.60 GFP+-cells/confluence ∙ 1000
- Mean NFκB response ([2]; 10 µM, 3 h): 4121.32 GFP+-cells/confluence ∙ 1000
- Mean NFκB response ([2]; 10 µM, 6 h): 5330.81 GFP+-cells/confluence ∙ 1000
- Mean NFκB response ([2]; 10 µM, 9 h): 13339.51 GFP+-cells/confluence ∙ 1000
- Mean NFκB response ([2]; 10 µM, 12 h): 22208.27 GFP+-cells/confluence ∙ 1000
- Mean NFκB response ([2]; 10 µM, 15 h): 29794.15 GFP+-cells/confluence ∙ 1000
- Mean NFκB response ([2]; 10 µM, 18 h): 34711.23 GFP+-cells/confluence ∙ 1000
- Mean NFκB response ([2]; 10 µM, 21 h): 38030.00 GFP+-cells/confluence ∙ 1000
- Mean NFκB response ([2]; 10 µM, 24 h): 41021.29 GFP+-cells/confluence ∙ 1000
- ATF6 activity (tunicamycin-induced endoplasmic reticulum stress) [3]: lacked this effect
- activity at 10 µM ([3]; Homo sapiens, HeLa, 10 µM, single replicates n=1 to n=5, read-out: ER stress [rel. ATF6 activity]): 88%
- Metabolic activity [MA] (HEK293T cells [4]; 10 µM): 0.99 and 0.91 (2×) and 0.85 and 1.04 and 1.01 and 0.95 and 0.93
- Growth rate [GR] (HEK293T cells [5]; 10 µM): 0.52 and 3.08 and 0.59 and 0.82 and 0.68 and 0.29 and 0.42 and 1.20 and 1.31 and 8.43
- Apoptosis induction [AI] (HEK293T cells [6]; 10 µM): 0.95 and 1.15 and 0.71 and 1.22 (2×) and 1.40
